Experimental data reported in the NIST ThermoML archive (doi:10.1021/je400630f).
± gives the expanded uncertainty stated by the source.

Assay: xn = mol fraction of the nth substance listed
Settings: 100 kPa, Liquid; for viscosity: Capillary tube (Ostwald / Ubbelohde) method

CCCCCCCCCO [nonan-1-ol] + CCO
Settings	mass density, 283.15 K [kg/m3]	mass density, 293.15 K [kg/m3]	mass density, 298.15 K [kg/m3]	mass density, 303.15 K [kg/m3]	mass density, 313.15 K [kg/m3]	viscosity, 283.15 K [mPa·s]	viscosity, 293.15 K [mPa·s]	viscosity, 298.15 K [mPa·s]	viscosity, 303.15 K [mPa·s]	viscosity, 313.15 K [mPa·s]
x2 = 0	835 ± 1.3	828.1 ± 1.3	824.7 ± 1.3	821.3 ± 1.3	814.3 ± 1.4	17.44 ± 0.36	11.63 ± 0.24	9.519 ± 0.2	7.806 ± 0.16	5.668 ± 0.12
x2 = 0.0999	834.1 ± 1.2	827.2 ± 1.3	823.8 ± 1.3	820.3 ± 1.3	813.3 ± 1.3	14.81 ± 0.31	10.17 ± 0.21	8.427 ± 0.18	6.931 ± 0.14	5.108 ± 0.11
x2 = 0.2	832 ± 1.2	825.1 ± 1.3	821.6 ± 1.3	818.1 ± 1.3	811 ± 1.3	12.63 ± 0.26	8.712 ± 0.18	7.371 ± 0.15	6.145 ± 0.13	4.534 ± 0.095
x2 = 0.3002	830 ± 1.2	823.2 ± 1.3	819.7 ± 1.3	816.1 ± 1.3	809 ± 1.3	10.68 ± 0.22	7.431 ± 0.15	6.388 ± 0.13	5.34 ± 0.11	3.966 ± 0.083
x2 = 0.4001	827.9 ± 1.2	820.9 ± 1.3	817.3 ± 1.3	813.8 ± 1.3	806.5 ± 1.3	8.855 ± 0.18	6.275 ± 0.13	5.421 ± 0.11	4.577 ± 0.095	3.443 ± 0.072
x2 = 0.4999	825.3 ± 1.2	818.2 ± 1.3	814.5 ± 1.3	810.9 ± 1.3	803.6 ± 1.3	7.184 ± 0.15	5.234 ± 0.11	4.529 ± 0.094	3.845 ± 0.08	2.946 ± 0.061
x2 = 0.6001	822.9 ± 1.2	815.1 ± 1.3	811.4 ± 1.3	807.7 ± 1.3	800.8 ± 1.3	5.578 ± 0.12	4.243 ± 0.088	3.712 ± 0.077	3.169 ± 0.066	2.485 ± 0.052
x2 = 0.6997	818.3 ± 1.2	810.8 ± 1.3	807 ± 1.3	803.3 ± 1.3	795.6 ± 1.4	4.208 ± 0.087	3.319 ± 0.069	2.936 ± 0.061	2.536 ± 0.053	2.042 ± 0.042
x2 = 0.7975	815 ± 1.3	807.1 ± 1.3	803.3 ± 1.3	799.4 ± 1.3	791.1 ± 1.4	3.169 ± 0.066	2.478 ± 0.051	2.281 ± 0.047	1.961 ± 0.041	1.624 ± 0.034
x2 = 0.8998	809.5 ± 1.3	799.4 ± 1.3	795.3 ± 1.3	791.3 ± 1.4	783 ± 1.4	2.22 ± 0.046	1.696 ± 0.035	1.658 ± 0.034	1.415 ± 0.029	1.214 ± 0.025

CCCCCCCCO [octan-1-ol] + CCO
Settings	mass density, 283.15 K [kg/m3]	mass density, 293.15 K [kg/m3]	mass density, 298.15 K [kg/m3]	mass density, 303.15 K [kg/m3]	mass density, 313.15 K [kg/m3]	viscosity, 283.15 K [mPa·s]	viscosity, 293.15 K [mPa·s]	viscosity, 298.15 K [mPa·s]	viscosity, 303.15 K [mPa·s]	viscosity, 313.15 K [mPa·s]
x2 = 0	832.1 ± 1.2	825.2 ± 1.2	821.9 ± 1.2	818.4 ± 1.3	811.4 ± 1.3	13.49 ± 0.28	9.016 ± 0.19	7.39 ± 0.15	6.306 ± 0.13	4.587 ± 0.095
x2 = 0.1001	831.8 ± 1.2	824.1 ± 1.2	821.3 ± 1.2	817.8 ± 1.3	810.7 ± 1.3	11.57 ± 0.24	7.998 ± 0.17	6.619 ± 0.14	5.68 ± 0.12	4.167 ± 0.087
x2 = 0.2001	829.4 ± 1.2	822.4 ± 1.2	818.9 ± 1.2	815.4 ± 1.3	808.3 ± 1.3	9.981 ± 0.2	6.997 ± 0.14	5.812 ± 0.12	5.045 ± 0.11	3.739 ± 0.078
x2 = 0.3003	827.3 ± 1.2	820.6 ± 1.2	817 ± 1.3	813.4 ± 1.3	806.2 ± 1.3	8.404 ± 0.17	6.004 ± 0.12	5.076 ± 0.11	4.422 ± 0.092	3.316 ± 0.069
x2 = 0.3999	825.4 ± 1.2	818.2 ± 1.2	814.7 ± 1.3	811.5 ± 1.3	803.7 ± 1.3	6.907 ± 0.14	5.04 ± 0.1	4.357 ± 0.09	3.732 ± 0.077	2.903 ± 0.06
x2 = 0.5004	822.6 ± 1.2	815.3 ± 1.3	811.7 ± 1.3	808.1 ± 1.3	800.7 ± 1.3	5.63 ± 0.12	4.177 ± 0.086	3.665 ± 0.076	3.22 ± 0.067	2.501 ± 0.052
x2 = 0.6006	820.1 ± 1.2	812.7 ± 1.3	809 ± 1.3	805.2 ± 1.3	797.7 ± 1.3	4.488 ± 0.093	3.427 ± 0.071	3.047 ± 0.063	2.677 ± 0.055	2.117 ± 0.044
x2 = 0.7	816.8 ± 1.2	809.3 ± 1.3	805.4 ± 1.3	801.7 ± 1.3	793.9 ± 1.4	3.543 ± 0.073	2.711 ± 0.056	2.445 ± 0.051	2.178 ± 0.045	1.771 ± 0.037
x2 = 0.7999	811.7 ± 1.3	803.9 ± 1.3	800 ± 1.3	796.1 ± 1.3	788.1 ± 1.4	2.714 ± 0.056	2.146 ± 0.044	1.958 ± 0.041	1.712 ± 0.036	1.4 ± 0.029
x2 = 0.8998	–	–	–	–	–	2.003 ± 0.042	1.593 ± 0.033	1.474 ± 0.031	1.328 ± 0.028	1.112 ± 0.023
x2 = 0.9001	805 ± 1.3	796.8 ± 1.3	792.7 ± 1.4	788.6 ± 1.4	780.4 ± 1.4	–	–	–	–	–

CCCCCO [pentan-1-ol] + CCO
Settings	mass density, 283.15 K [kg/m3]	mass density, 293.15 K [kg/m3]	mass density, 298.15 K [kg/m3]	mass density, 303.15 K [kg/m3]	mass density, 313.15 K [kg/m3]	viscosity, 283.15 K [mPa·s]	viscosity, 293.15 K [mPa·s]	viscosity, 298.15 K [mPa·s]	viscosity, 303.15 K [mPa·s]	viscosity, 313.15 K [mPa·s]
x2 = 0	822.1 ± 1.3	814.7 ± 1.3	811.2 ± 1.3	807.5 ± 1.3	800 ± 1.4	5.417 ± 0.11	3.974 ± 0.083	3.441 ± 0.072	2.99 ± 0.062	2.263 ± 0.047
x2 = 0.1	820.6 ± 1.3	813.2 ± 1.3	810 ± 1.3	805.8 ± 1.3	798.3 ± 1.4	4.879 ± 0.1	3.595 ± 0.075	3.154 ± 0.066	2.741 ± 0.057	2.1 ± 0.044
x2 = 0.2	819.4 ± 1.3	812 ± 1.3	808.3 ± 1.3	804.6 ± 1.3	797 ± 1.4	4.379 ± 0.091	3.263 ± 0.068	2.874 ± 0.06	2.506 ± 0.052	1.931 ± 0.04
x2 = 0.2998	817.8 ± 1.3	810.3 ± 1.3	806.6 ± 1.3	802.8 ± 1.3	795.1 ± 1.4	3.892 ± 0.081	2.935 ± 0.061	2.587 ± 0.054	2.27 ± 0.047	1.771 ± 0.037
x2 = 0.3999	815.4 ± 1.3	807.8 ± 1.3	804.2 ± 1.3	800.2 ± 1.3	792.4 ± 1.4	3.404 ± 0.071	2.619 ± 0.054	2.324 ± 0.048	2.05 ± 0.043	1.61 ± 0.034
x2 = 0.4997	813.3 ± 1.3	805.6 ± 1.3	801.8 ± 1.3	797.9 ± 1.3	790 ± 1.4	2.966 ± 0.062	2.328 ± 0.048	2.07 ± 0.043	1.828 ± 0.038	1.452 ± 0.03
x2 = 0.6	811 ± 1.3	803.2 ± 1.3	799.6 ± 1.3	795.4 ± 1.4	787.4 ± 1.4	2.564 ± 0.053	2.04 ± 0.042	1.833 ± 0.038	1.628 ± 0.034	1.312 ± 0.027
x2 = 0.7	808.4 ± 1.3	800.5 ± 1.3	796.4 ± 1.3	792.5 ± 1.4	784.3 ± 1.4	2.234 ± 0.046	1.796 ± 0.037	1.631 ± 0.034	1.453 ± 0.03	1.179 ± 0.025
x2 = 0.8	805.3 ± 1.3	797.3 ± 1.3	793.7 ± 1.4	789.1 ± 1.4	780.8 ± 1.4	1.938 ± 0.04	1.583 ± 0.033	1.435 ± 0.03	1.285 ± 0.027	1.062 ± 0.022
x2 = 0.8999	802 ± 1.3	793.7 ± 1.3	790.4 ± 1.4	785.3 ± 1.4	776.8 ± 1.4	1.693 ± 0.035	1.381 ± 0.029	1.256 ± 0.026	1.141 ± 0.024	0.956 ± 0.02
